Measurements published in US20220071880A1, “METHODS FOR TREATING CUTANEOUS AGING” (Applied Therapeutics, Inc., priority 2019, published 2022).
“Also recorded” adds a separate entry of the source.

How the values were obtained:
Format in all cases: cell-based
[1] = tested on: Cultured human skin cells (keratinocytes); assay: Mitochondrial oxidative stress by Mitosox staining in H2O2-exposed cultured keratinocytes
Method: FIGS. 2A and 2B are fluorescence images of cultured human skin (keratinocytes) that were exposed to H2O2 to cause oxidative stress. The cells were analyzied for mitochondrial stress by staining with Mitosox. FIG. 2A depicts the skin cell damage in the presence of H2O2 as assessed by Mitosox staining.
(§1) Cultured human skin cells (keratinocytes) were exposed to H2O2, which causes oxidative damage to simulate the aging process, in the presence of Compound A (at 0.18 nM concentration) or vehicle control. The cultured cells were then assessed for cytosolic reactive oxygen species via Dihydroethidium (DHE) staining (FIG. 1A and FIG. 1B) and for mitochondrial stress via Mitosox™ (a fluorgenic dye targeted to mitochondria in live cells and readily oxidized by superoxide to produce fluorescence, ThermoFisher Scientific) staining (FIG. 2A and FIG. 2B).

[2] = tested on: Cultured human skin cells (keratinocytes); assay: Cytosolic reactive oxygen species by dihydroethidium (DHE) staining in H2O2-exposed cultured keratinocytes
Source text: FIGS. 1A and 1B are fluorescence images of cultured human skin (keratinocytes) that were exposed to H2O2 to cause oxidative stress. The cells were analyzied for cytosolic reactive oxygen species by staining with dihydroethidium (DHE). FIG. 1A depicts the skin cell damage in the presence of H2O2 as assessed by DHE staining, and the presence of cytosolic reactive oxygen species is shown by fluorescence.
as §1

[3] = tested on: cultured human keritinocytes; assay: Senescence-associated beta-galactosidase (SA-βgal) expression in H2O2-exposed cultured keratinocytes, cytochemical approach; conditions: human keratinocytes exposed to H2O2; Compound A at 0.18 nM vs vehicle control
Method: Senescence-associated beta-galactosidase (SA-βgal) is a well-known biomarker of senescent cells in culture and in vivo. Debacq-Chainiaux et al., Nature Protocols 4, 1798-1806 (2009). In additional studies the cultured human keritinocytes that were exposed to H2O2 in the presence of Compound A (at 0.18 nM concentration) or vehicle control were analyzed for expression of SA-βgal using a cytochemical approach.

[4] = same cultured human keratinocyte system, concentration not given
[5] = human keratinocytes exposed to H2O2, Compound A at 0.18 nM vs vehicle control

SMILES	H2O2-induced mitochondrial oxidative stress [1, 4]	H2O2-induced cytosolic reactive oxygen species formation [2, 4]	H2O2-induced mitochondrial oxidative stress (Mitosox fluorescence) [1, 5]	H2O2-induced SA-βgal expression [3]	H2O2-induced cytosolic reactive oxygen species formation (DHE fluorescence) [2, 5]
O=C(O)Cc1nn(Cc2nc3cc(C(F)(F)F)ccc3s2)c(=O)c2cscc12 [Compound B]	inhibited H2O2-induced cytosolic reactive oxygen species formation and mitochondrial oxidative stress	inhibited H2O2-induced cytosolic reactive oxygen species formation			
O=C(O)Cc1nn(Cc2nc3cc(C(F)(F)F)ccc3s2)c(=O)c2nccnc12 [Compound A]			reduced Mitisox fluorescence; also recorded: reduced mitochondrial oxidative stress	inhibited H2O2-induced SA-βgal	attenuated DHE fluorescence; also recorded: attenuated H2O2-induced cytosolic reactive oxygen species formation
